The values that follow come from ChEMBL document CHEMBL3244079, “Synthesis and antiarrhythmic activity of 2-dialkylaminoalkyl-9-phenyl-1H-indeno[2,1-c]pyridine derivatives” (J Med Chem, 1978).

Molecules are shown by their SMILES. Calls of active or inactive are those of the source. The calls are words filed in the database; no cut-off is given here.

One series relates to Heart. Nature of the series: Antiarrhythmic activity in rabbit heart assessed as reduction in aconitine-induced ventricular arrhythmia at 40 mg/l after 30 mins by electrocardiographic analysis. In kind it is functional, tissue-based. The conditions noted are these: Oryctolagus cuniculus.
Series [1] has as its system Canis familiaris. Nature of the series: Antiarrhythmic activity in iv dosed mongrel dog assessed as reduction in ouabain-induced ventricular arrhythmia by electrocardiographic analysis. In kind it is functional. The conditions noted are these: Canis lupus familiaris, Heart; for minimal effective dose: read-out: MED.
The test system of series [2] is Canis familiaris. Nature of the series: Antiarrhythmic activity in iv dosed mongrel dog assessed as reduction in ouabain-induced ventricular arrhythmia measured as duration of action at MED by electrocardiographic analysis. In kind it is functional, Canis lupus familiaris, Heart.
The species entered for series [3] is Canis familiaris. Nature of the series: Antiarrhythmic activity in mongrel dog Harris two-stage coronary ligation model assessed as reduction in ectopic beats by electrocardiographic analysis. In kind it is functional. Particulars: Canis lupus familiaris, Heart; for minimal effective dose: read-out: MED.
Series [4] is filed under the species Canis familiaris. Nature of the series: Antiarrhythmic activity in mongrel dog Harris two-stage coronary ligation model assessed as reduction in ectopic beats measured as duration of action at MED by electrocardiographic analysis. Format: functional, Canis lupus familiaris, Heart.
Series [5] is filed under the species Canis familiaris. Nature of the series: Toxicity in mongrel dog Harris two-stage coronary ligation model. In kind it is organism-based, Canis lupus familiaris. The conditions noted are these: in vivo.

Take `Br.c1ccc([C@@H]2c3ccccc3[C@@H]3CCNC[C@H]23)cc1` (relative stereo): the outcome in the series with Heart was Active. The minimal effective dose stood at 17.5 mg/kg in the series on Canis familiaris [1] and 15 mg/kg in the series listed under Canis familiaris [3]. In addition, the results for the Time with Canis familiaris [2] and in the series listed under Canis familiaris [4] were 15 min and 12.5 min, respectively.
Regarding `Br.CCN(CC)CCCN1CC=C2C(=C(c3ccccc3)c3ccccc32)C1.O`, the outcome in the series on Heart was Active. Further, the results for the minimal effective dose in the series on Canis familiaris [1] and in the series listed under Canis familiaris [3] were 20 mg/kg and 15 mg/kg, respectively. Further, the values for the Time with Canis familiaris [2] and in the series filed under Canis familiaris [4] were 35 min and 10 min, respectively.
On to `CCN(CC)CCN1CC[C@H]2c3ccccc3[C@H](c3ccccc3)[C@H]2C1` (relative stereo), for which the outcome in the series with Heart was Active. The result with Canis familiaris [1] was inactive.
Consider `Cl.O.c1ccc([C@H]2c3ccccc3[C@@H]3CCN(CCCN4CCCCC4)C[C@H]23)cc1` (relative stereo), for which, in the series on Heart, the outcome was Active. In the series with Canis familiaris [1], the minimal effective dose is 10 mg/kg. Further, the Time in the series on Canis familiaris [2] was 30 min. Further, the Activity result in the series filed under Canis familiaris [5] is “Toxic”.
For `Cl.O.c1ccc([C@@H]2c3ccccc3[C@@H]3CCN(CCCN4CCCCC4)C[C@H]23)cc1` (relative stereo), the minimal effective dose with Canis familiaris [1] worked out at 15 mg/kg. Further, the Time in the series with Canis familiaris [2] came to 15 min. Also, in the series listed under Canis familiaris [3], the result was inactive.
Regarding `Br.CCN(CC)CCN1CC[C@H]2c3ccccc3[C@@H](c3ccccc3)[C@H]2C1.O` (relative stereo), the outcome in the series on Heart was Active. Further, the figures for the minimal effective dose with Canis familiaris [1] and in the series filed under Canis familiaris [3] were 10 mg/kg and 12.5 mg/kg, respectively. For the same molecule, the Time in the series on Canis familiaris [2] was 25 min; in the series filed under Canis familiaris [4], 12.5 min.
Regarding `CCN(CC)CCCN1CC[C@H]2c3ccccc3[C@@H](c3ccccc3)[C@H]2C1.Cl.O` (relative stereo), the outcome in the series on Heart was Active. In addition, the minimal effective dose with Canis familiaris [1] is 20 mg/kg; in the series listed under Canis familiaris [3], 12.5 mg/kg. Moreover, the Time in the series on Canis familiaris [2] is given as 15 min; in the series listed under Canis familiaris [4] it was 10 min.
For the molecule `Br.CN(C)CCCN1CC=C2C(=C(c3ccccc3)c3ccccc32)C1.O`, the outcome in the series with Heart was Active. Further, the minimal effective dose with Canis familiaris [1] was 15 mg/kg. Besides, the Time in the series on Canis familiaris [2] turned out to be 40 min. Also, in the series filed under Canis familiaris [3], the outcome was inactive.
Take `CCN(CC)CCCN1CCC(O)(c2ccccc2)C(C(=O)c2ccccc2)C1` (stereo not drawn): the minimal effective dose in the series with Canis familiaris [1] worked out at 12.5 mg/kg; in the series filed under Canis familiaris [3], 7.5 mg/kg. Moreover, the figures for the Time in the series with Canis familiaris [2] and in the series listed under Canis familiaris [4] were 32 min and 16 min, respectively.
Turning to `CN(C)CCCN1CCC(O)(c2ccccc2)C(C(=O)c2ccccc2)C1` (stereo not drawn), the result in the series on Heart was Active. The outcome with Canis familiaris [1] was inactive.
Turning to `C=C[C@H]1CN2CC[C@H]1C[C@@H]2[C@@H](O)c1ccnc2ccc(OC)cc12` [QUINIDINE], the outcome in the series with Heart was Active. Further, the figures for the minimal effective dose in the series with Canis familiaris [1] and in the series listed under Canis familiaris [3] were 7.5 mg/kg and 12.8 mg/kg, respectively. Moreover, the values for the Time in the series on Canis familiaris [2] and in the series filed under Canis familiaris [4] were over 30 min and 23 min, respectively.
Take `CN(C)CCCN1CC[C@H]2c3ccccc3[C@H](c3ccccc3)[C@H]2C1` (relative stereo): the outcome in the series with Heart was Active. The outcome in the series with Canis familiaris [1] was inactive.
For `c1ccc([C@H]2c3ccccc3[C@@H]3CCNC[C@H]23)cc1` (relative stereo) the same measures were “Active” and “inactive”.
On to `Br.CN(C)CCN1CC[C@H]2c3ccccc3[C@H](c3ccccc3)[C@H]2C1` (relative stereo), for which the outcome with Heart was Active. In addition, in the series with Canis familiaris [1], the minimal effective dose was 20 mg/kg. Besides, the Time in the series with Canis familiaris [2] is reported as 17 min. Moreover, the outcome in the series filed under Canis familiaris [3] was inactive.
For `O=C(c1ccccc1)C1CN(CCCN2CCCCC2)CCC1(O)c1ccccc1` (stereo not drawn) the same measures were “Active”, 10 mg/kg, 15 min and “inactive”.
As to `CC(C)N(CCC(C(N)=O)(c1ccccc1)c1ccccn1)C(C)C.O=P(O)(O)O` (stereo not drawn) [DISOPYRAMIDE PHOSPHATE], the minimal effective dose with Canis familiaris [1] was determined as 6.6 mg/kg; in the series listed under Canis familiaris [3], 7 mg/kg. The results for the Time in the series with Canis familiaris [2] and in the series filed under Canis familiaris [4] were over 30 min and 23 min, respectively.
Turning to `CN(C)CCCN1CC[C@H]2c3ccccc3[C@@H](c3ccccc3)[C@H]2C1.Cl.O` (relative stereo), in the series with Heart, the result was Active. In addition, the minimal effective dose in the series with Canis familiaris [1] and in the series filed under Canis familiaris [3] was 10 mg/kg each time. Further, the Time in the series on Canis familiaris [2] is 15 min; in the series filed under Canis familiaris [4], 17.5 min.
With `Br.CCN(CC)CCCN1CC[C@H]2c3ccccc3[C@H](c3ccccc3)[C@H]2C1.O` (relative stereo), the minimal effective dose with Canis familiaris [1] came out at 15 mg/kg. In addition, the Time in the series with Canis familiaris [2] was found to be 19 min.
`Br.C1=C2C(=C(c3ccccc3)c3ccccc32)CN(CCCN2CCCCC2)C1.O`: the result in the series with Heart was Active. The minimal effective dose in the series with Canis familiaris [1] came out at 10 mg/kg; in the series listed under Canis familiaris [3] it was 7.5 mg/kg. Besides, the Time was determined as 35 min in the series with Canis familiaris [2] and 12 min in the series listed under Canis familiaris [4].
Turning to `CN(C)CCN1CCC(O)(c2ccccc2)C(C(=O)c2ccccc2)C1` (stereo not drawn), in the series with Heart, the result was Active. The result in the series with Canis familiaris [1] was inactive.
Consider `Br.C1=C2C(=C(c3ccccc3)c3ccccc32)CN(Cc2ccccc2)C1`, for which the outcome with Heart was Active. In the series with Canis familiaris [1], the minimal effective dose turned out to be 15 mg/kg. Also, the Time in the series with Canis familiaris [2] was found to be 17 min. Moreover, in the series listed under Canis familiaris [3], the result was inactive.
